{"source": "ChEMBL document CHEMBL1122028", "about": "“1-Acyltriazoles as antiinflammatory agents” (J Med Chem, 1982)", "key": {"[1]": {"test": "Lethal dose required to produce acute toxicity in mice(ip)", "format": "organism-based", "settings": "mouse, in vivo"}, "[2]": {"test": "Therapeutic index (LD50/ID50, MAA) value of the compound", "settings": "read-out: TI"}, "[3]": {"system": "Rattus norvegicus", "test": "Biological activity against adjuvant-induced arthritis at the dose of 37.5 mg/kg (p.o.); 18/7", "format": "functional", "settings": "route oral"}, "[4]": {"system": "Mus musculus", "test": "Tested for antiinflammatory activity in the mouse active Arthus (MAA) test by peroral administration", "format": "functional", "settings": "for ED50: po, read-out: ID50 (the source's name)"}, "[5]": {"system": "Rattus norvegicus", "test": "Biological activity against adjuvant-induced arthritis at the dose of 75 mg/kg (p.o.)", "format": "functional", "settings": "route oral"}, "[6]": {"system": "Rattus norvegicus", "test": "Biological activity against adjuvant-induced arthritis at the dose of 150 mg/kg (p.o.); 21/73", "format": "functional", "settings": "route oral"}, "[7]": {"system": "Rattus norvegicus", "test": "Biological activity against adjuvant-induced arthritis at the dose of 150 mg/kg (p.o.)", "format": "functional", "settings": "route oral"}, "[8]": {"system": "Rattus norvegicus", "test": "Biological activity against adjuvant-induced arthritis at the dose of 75 mg/kg (p.o.); 27/26", "format": "functional", "settings": "route oral"}, "[9]": {"system": "Rattus norvegicus", "test": "Biological activity against carrageenan-induced edema", "format": "functional", "settings": "read-out: ID50 (the source's name)"}, "[10]": {"system": "Rattus norvegicus", "test": "Biological activity against adjuvant-induced arthritis at the dose of 37.5 mg/kg (p.o.)", "format": "functional", "settings": "route oral"}, "[11]": {"system": "Mus musculus", "test": "Tested for antiinflammatory activity in the mouse active Arthus (MAA) test by intraperitoneal administration", "format": "functional", "settings": "ip, read-out: ID50 (the source's name)"}, "[12]": {"test": "Lethal dose required to produce acute toxicity in mice(po)", "format": "organism-based", "settings": "mouse, in vivo"}, "[13]": {"species": "Rattus norvegicus", "test": "animal or person", "settings": "po, read-out: Inhibition", "description": "Biological activity against adjuvant-induced arthritis at the dose of 60 mg/kg (p.o.); 56/61"}, "[14]": {"species": "Rattus norvegicus", "test": "animal or person", "settings": "po, read-out: Inhibition", "remark": "listed apart in the source", "description": "Biological activity against adjuvant-induced arthritis at the dose of 30 mg/kg (p.o.); 30/30"}, "[15]": {"system": "Rattus norvegicus", "test": "Biological activity against adjuvant-induced arthritis at the dose of 120 mg/kg (p.o.)", "format": "functional", "settings": "route oral"}, "[16]": {"system": "Rattus norvegicus", "test": "Biological activity against adjuvant-induced arthritis at the dose of 120 mg/kg (p.o.); 65/57", "format": "functional", "settings": "route oral"}, "[17]": {"system": "Rattus norvegicus", "test": "Biological activity against adjuvant-induced arthritis at the dose of 30 mg/kg (p.o.)", "format": "functional", "settings": "route oral"}, "[18]": {"system": "Rattus norvegicus", "test": "Biological activity against adjuvant-induced arthritis at the dose of 60 mg/kg (p.o.)", "format": "functional", "settings": "route oral"}}, "data": [{"smiles": "CC(=O)n1nc(-c2ccc(Cl)cc2)nc1C", "values": [{"measurement": "LD50", "setting": "[1]", "value": 600, "unit": "mg/kg"}, {"measurement": "selectivity ratio", "setting": "[2]", "value": "> 9.35"}, {"measurement": "inhibition in vivo at 37.5 mg/kg", "setting": "[3]", "value": 18, "unit": "%"}, {"measurement": "ID40", "setting": "[4]", "value": 175, "unit": "mg/kg"}, {"measurement": "ED50", "setting": "[4]", "value": 342, "unit": "mg/kg"}, {"measurement": "inhibition in vivo at 75 mg/kg", "setting": "[5]", "value": 90, "unit": "%"}, {"measurement": "inhibition in vivo at 150 mg/kg", "setting": "[6]", "value": 21, "unit": "%"}, {"measurement": "inhibition in vivo at 150 mg/kg", "setting": "[7]", "value": 90, "unit": "%"}, {"measurement": "inhibition in vivo at 75 mg/kg", "setting": "[8]", "value": 27, "unit": "%"}, {"measurement": "ED50", "setting": "[9]", "value": "> 150", "unit": "mg/kg"}, {"measurement": "inhibition in vivo at 37.5 mg/kg", "setting": "[10]", "value": 90, "unit": "%"}, {"measurement": "ED50", "setting": "[11]", "value": 37, "unit": "mg/kg"}, {"measurement": "LD50", "setting": "[12]", "value": "> 3200", "unit": "mg/kg"}]}, {"smiles": "Cc1nnc(C)n1/N=C(\\N)c1ccc(C(F)(F)F)cc1", "values": [{"measurement": "ED50", "setting": "[4]", "value": "> 600", "unit": "mg/kg"}]}, {"smiles": "CCc1nnc(CC)n1N", "values": [{"measurement": "ED50", "setting": "[4]", "value": "> 600", "unit": "mg/kg"}]}, {"smiles": "Cc1nc(-c2ccc(Cl)cc2)nn1C(=O)c1ccccc1", "values": [{"measurement": "ED50", "setting": "[4]", "value": "> 600", "unit": "mg/kg"}]}, {"smiles": "Cc1ccc(C(=N)Nn2c(C)nnc2C)cc1", "values": [{"measurement": "ED50", "setting": "[4]", "value": "> 600", "unit": "mg/kg"}]}, {"smiles": "CC(=O)n1nc(-c2ccc(C)cc2)nc1C", "values": [{"measurement": "ED50", "setting": "[4]", "value": "> 600", "unit": "mg/kg"}]}, {"smiles": "Cc1nnc(C)n1/N=C(\\N)c1ccccc1", "values": [{"measurement": "ED50", "setting": "[4]", "value": "> 600", "unit": "mg/kg"}]}, {"smiles": "CC(=O)n1nc(-c2ccc(C(F)(F)F)cc2)nc1C", "values": [{"measurement": "ED50", "setting": "[4]", "value": 411, "unit": "mg/kg"}]}, {"smiles": "CCC(=O)n1nc(-c2ccc(Cl)cc2)nc1C", "values": [{"measurement": "ED50", "setting": "[4]", "value": 408, "unit": "mg/kg"}]}, {"smiles": "CCc1nnc(CC)n1/N=C(\\N)c1ccc(Cl)cc1", "values": [{"measurement": "ED50", "setting": "[4]", "value": "> 600", "unit": "mg/kg"}]}, {"smiles": "CCc1nc(-c2ccc(Cl)cc2)nn1C(C)=O", "values": [{"measurement": "ED50", "setting": "[4]", "value": 543, "unit": "mg/kg"}]}, {"smiles": "CC(=O)n1nc(-c2ccccc2)nc1C", "values": [{"measurement": "ED50", "setting": "[4]", "value": 439, "unit": "mg/kg"}]}, {"smiles": "CC(C)Cc1ccc(C(C)C(=O)O)cc1", "note": "(configuration not stated) [IBUPROFEN]", "values": [{"measurement": "LD50", "setting": "[1]", "value": 490, "unit": "mg/kg"}, {"measurement": "selectivity ratio", "setting": "[2]", "value": "< 2.15"}, {"measurement": "ID40", "setting": "[4]", "value": 386, "unit": "mg/kg"}, {"measurement": "ED50", "setting": "[4]", "value": "> 600", "unit": "mg/kg"}, {"measurement": "inhibition in vivo at 60 mg/kg", "setting": "[13]", "value": 56, "unit": "%"}, {"measurement": "inhibition in vivo at 30 mg/kg", "setting": "[14]", "value": 30, "unit": "%"}, {"measurement": "inhibition in vivo at 120 mg/kg", "setting": "[15]", "value": 100, "unit": "%"}, {"measurement": "inhibition in vivo at 120 mg/kg", "setting": "[16]", "value": 65, "unit": "%"}, {"measurement": "inhibition in vivo at 30 mg/kg", "setting": "[17]", "value": 100, "unit": "%"}, {"measurement": "ED50", "setting": "[9]", "value": 70, "unit": "mg/kg"}, {"measurement": "inhibition in vivo at 60 mg/kg", "setting": "[18]", "value": 100, "unit": "%"}, {"measurement": "ED50", "setting": "[11]", "value": "> 150", "unit": "mg/kg"}, {"measurement": "LD50", "setting": "[12]", "value": 1650, "unit": "mg/kg"}]}]}
